ChEMBL document CHEMBL1201862, “PubChem BioAssay data set” (2004)
Activity calls are given as the source filed them.

What was measured:
Vero [1] = assay: Vero 76 cell viability after compound exposure – Vero 76 cells, synthesized analogs, cytotoxicity control for West Nile virus antiviral project, SAR follow-up (AID 2414); assay type: functional; conditions: Chlorocebus sabaeus
Vero [2] = assay: Vero cell viability after compound exposure – synthesized analogs, set II, cytotoxicity control for West Nile virus antiviral project, SAR follow-up (AID 2402); assay type: functional; conditions: Chlorocebus sabaeus
Vero [3] = assay: host cell viability loss, Vero E6 – synthesized analogs, cytotoxicity control for West Nile virus antiviral project, SAR follow-up (AID 2244); assay type: functional; conditions: Chlorocebus sabaeus
Vero [4] = assay: antiviral protection of cells from WNV – synthesized analogs, SAR follow-up (AID 2238); assay type: functional, cell-based; conditions: Chlorocebus sabaeus
Vero [5] = assay: antiviral activity against WNV, CPE read-out – cell-based (AID 2419); assay type: functional; conditions: Chlorocebus sabaeus
Vero [6] = assay: inhibition of WNV-induced cytopathic effect – cell-based, CPE readout (AID 1621); assay type: functional; conditions: Chlorocebus sabaeus
[7] = luciferase reporter signal suppression in cells – H4 neuroglioma cells, luminescence, dose response (AID 1990); assay type: functional, cell-based
[8] = Luminescence Cell-Based Dose Response HTS to Identify Inhibitors of 5'UTR Stem-Loop Driven Prion Protein mRNA Translation in H4 Neuroglioblastoma Cells. [Related pubchem assays: 1827 (Project Summary), 1813 (Primary HTS)]; assay type: functional
[9] = alpha-synuclein stem-loop luciferase translation blockers – H4 neuroglioma cells, luminescence, confirmation (AID 1988); assay type: functional, cell-based
[10] = target: T1, G-protein coupled receptor 55 (Homo sapiens, UniProt Q9Y2T6); assay: inhibition of LPI-stimulated GPR55 beta-arrestin translocation – imaging, U2OS, beta-arrestin-GFP, LPI agonist, primary screen (AID 2013); assay type: functional;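 note: antagonist potency measured as reduced agonist-driven arrestin aggregation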
[11] = viability of PTEN-deleted HCT116 cells – cell-based, HCT116 PTEN knockout, dose response (AID 1047); assay type: functional;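 note: HCT116 colon tumor cells with PTEN knocked out; cells exposed to compound for 60 hours before readout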
[12] = viability of HCT116 lacking mutant beta-catenin – cell-based, human colon tumor, dose response (AID 1045); assay type: functional;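 note: HCT116 colon tumor cells with beta catenin knocked out; cells exposed to compound for 60 hours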
Saccharomyces cerevisiae = assay: S. cerevisiae Caspase-1/ASC signal blockers IC50, NALP1 inhibitor project selectivity test (AID 488863); assay type: functional, organism-based
[13] = target: NACHT, LRR and PYD domains-containing protein 1 (Homo sapiens, UniProt Q9C000); assay: NALP1 inhibitors in yeast, dose response, luminescent (AID 488860); assay type: functional
[14] = target: Alkaline phosphatase, placental type (Homo sapiens, UniProt P05187); assay: human placental alkaline phosphatase inhibition – biochemical, luminescence, confirmation (AID 1512); assay type: functional
[15] = target: T2, Alkaline phosphatase, tissue-nonspecific isozyme (Homo sapiens, UniProt P05186); assay: potency against alkaline phosphatase TNAP – biochemical, luminescent, dose response, SAR follow-up (AID 1056)
T2 sequence (P05186 whole entry): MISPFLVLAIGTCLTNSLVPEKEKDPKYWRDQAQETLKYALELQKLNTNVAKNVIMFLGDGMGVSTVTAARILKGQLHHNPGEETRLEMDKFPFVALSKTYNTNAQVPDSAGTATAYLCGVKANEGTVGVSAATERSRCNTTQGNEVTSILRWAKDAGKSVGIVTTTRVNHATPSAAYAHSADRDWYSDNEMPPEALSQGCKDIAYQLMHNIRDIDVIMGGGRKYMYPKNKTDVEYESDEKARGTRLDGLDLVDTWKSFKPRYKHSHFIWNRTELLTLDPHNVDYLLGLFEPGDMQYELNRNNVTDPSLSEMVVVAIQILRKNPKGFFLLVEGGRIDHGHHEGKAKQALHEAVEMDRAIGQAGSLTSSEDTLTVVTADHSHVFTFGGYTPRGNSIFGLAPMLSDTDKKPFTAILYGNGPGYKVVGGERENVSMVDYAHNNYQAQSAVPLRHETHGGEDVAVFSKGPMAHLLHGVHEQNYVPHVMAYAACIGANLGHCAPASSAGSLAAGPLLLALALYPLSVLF

[16] = target: T1, G-protein coupled receptor 55; assay: selective activators of receptor GPR55 – imaging, U2OS cells, beta-arrestin-GFP redistribution, primary screen (AID 1961); assay type: functional
Coagulation factor XII = target: T3, Coagulation factor XII (Homo sapiens, UniProt P00748); assay: activated coagulation factor XII inhibitor potency, concentration-effect curve, cell-free (AID 716); assay type: functional
T3 sequence (P00748 whole entry): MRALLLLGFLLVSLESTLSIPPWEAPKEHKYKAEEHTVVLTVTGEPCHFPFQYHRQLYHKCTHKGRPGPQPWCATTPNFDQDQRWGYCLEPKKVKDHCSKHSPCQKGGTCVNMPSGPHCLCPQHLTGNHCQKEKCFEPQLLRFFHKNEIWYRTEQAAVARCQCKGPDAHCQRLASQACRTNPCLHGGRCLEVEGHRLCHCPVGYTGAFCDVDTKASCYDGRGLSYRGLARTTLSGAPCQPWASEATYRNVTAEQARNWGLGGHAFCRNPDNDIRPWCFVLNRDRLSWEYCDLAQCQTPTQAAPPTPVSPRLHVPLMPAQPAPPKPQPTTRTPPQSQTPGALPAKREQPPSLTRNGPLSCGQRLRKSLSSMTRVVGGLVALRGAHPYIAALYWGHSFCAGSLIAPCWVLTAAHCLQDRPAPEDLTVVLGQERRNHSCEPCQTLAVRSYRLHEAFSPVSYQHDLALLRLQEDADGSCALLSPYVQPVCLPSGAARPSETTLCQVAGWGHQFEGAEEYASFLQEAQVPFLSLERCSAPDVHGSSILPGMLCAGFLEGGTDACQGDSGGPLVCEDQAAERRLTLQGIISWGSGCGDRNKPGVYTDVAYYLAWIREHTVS

[17] = target: DNA dC->dU-editing enzyme APOBEC-3A (Homo sapiens, UniProt P31941); assay: A3A deaminase inhibition for selectivity – biochemical, dose response (AID 504722); assay type: functional
Hexokinase = target: T4, Hexokinase (Trypanosoma brucei, UniProt Q38C41); assay: Confirmation assay for inhibitors of Trypanosoma brucei hexokinase 1-Analogue-first series. [Related pubchem assays (depositor defined):AID1430, AID1632, AID2516, AID2560, AID2579, AID2600, AID449725, AID492951]; assay type: functional
T4 sequence (Q38C41 whole entry): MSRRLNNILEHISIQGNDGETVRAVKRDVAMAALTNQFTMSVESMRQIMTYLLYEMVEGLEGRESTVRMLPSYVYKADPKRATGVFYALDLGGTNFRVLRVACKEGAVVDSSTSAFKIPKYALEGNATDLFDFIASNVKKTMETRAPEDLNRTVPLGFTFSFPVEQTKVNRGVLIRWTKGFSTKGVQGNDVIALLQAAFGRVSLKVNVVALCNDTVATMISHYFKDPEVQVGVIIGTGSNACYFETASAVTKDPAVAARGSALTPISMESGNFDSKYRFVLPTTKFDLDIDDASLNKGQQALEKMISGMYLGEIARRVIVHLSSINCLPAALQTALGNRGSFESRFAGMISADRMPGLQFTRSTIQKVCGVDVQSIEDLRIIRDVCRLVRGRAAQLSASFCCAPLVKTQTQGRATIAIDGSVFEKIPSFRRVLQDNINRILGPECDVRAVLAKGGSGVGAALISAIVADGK

Phosphomannomutase 2 = target: T5, Phosphomannomutase 2 (Homo sapiens, UniProt O15305); assay: Counter screen SAR assay for PMM2 inhibitors via a fluorescence intensity assay. [Related pubchem assays (depositor defined):AID1545, AID1574]
T5 sequence (O15305 whole entry): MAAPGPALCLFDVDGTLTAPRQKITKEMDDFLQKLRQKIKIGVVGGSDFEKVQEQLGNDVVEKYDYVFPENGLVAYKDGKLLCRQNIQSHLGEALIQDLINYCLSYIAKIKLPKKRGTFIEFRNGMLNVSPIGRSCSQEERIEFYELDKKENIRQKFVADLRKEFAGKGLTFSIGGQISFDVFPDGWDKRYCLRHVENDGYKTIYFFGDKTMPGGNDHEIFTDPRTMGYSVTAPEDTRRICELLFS

[18] = target: Phosphoethanolamine/phosphocholine phosphatase (Homo sapiens, UniProt Q8TCT1); assay: SAR assay for compounds that inhibit PHOSPHO1. [Related pubchem assays (depositor defined):AID1545, AID1565, AID1574]
[19] = target: DNA dC->dU-editing enzyme APOBEC-3G (Homo sapiens, UniProt Q9HC16); assay: Dose Response confirmation of small molecule APOBEC3G DNA Deaminase Inhibitors via a fluorescence-based single-stranded DNA deaminase assay. [Related pubchem assays (depositor defined):AID493012, AID493028]; assay type: functional
CHO = CHO cell viability loss, potency – luminescence, cytotoxicity control for TLR9-MyD88 binding inhibitor project, dose response (AID 588339); assay type: functional, cell-based, hamster; conditions: Cricetulus griseus;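 note: CHO cells stably coexpressing TLR9 and MyD88 fusions from primary screen; compound exposure lasted 48 hours before viability readout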
Beta Lactamase [20] = target: T6, Beta Lactamase (Pseudomonas aeruginosa, UniProt Q932Y6); assay: BLA reporter interference, concentration series – BLA reporter cells, FRET fluorescence, artefact control for TLR9-MyD88 binding inhibitor project, dose response (AID 588341); assay type: cell-based;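 note: cell based assay in CHO-K1 cells stably expressing beta-lactamase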
[21] = target: Mitochondrial peptide methionine sulfoxide reductase (Bos taurus, UniProt P54149); assay: Absorbance-based biochemical high throughput dose response assay for activators of Methionine sulfoxide reductase A (MsrA).; assay type: functional
[22] = Fluorescence-based cell-based high throughput dose response assay for inhibitors of the interaction of nucleotide-binding oligomerization domain containing 2 (NOD2) and the receptor-interacting serine-threonine kinase 2 (RIPK2).; assay type: functional; conditions: Homo sapiens
Beta Lactamase [23] = target: T6, Beta Lactamase; assay: BLA reporter interference, concentration series – BLA reporter cells, FRET fluorescence, artefact control for NOD2-RIPK2 interaction inhibitor project, dose response (AID 651552); assay type: functional, cell-based
[24] = viability loss in HeLa cells – cytotoxicity control for MgcRacGAP inhibitor project, dose response (AID 624300); assay type: functional
[25] = target: T7, Rac GTPase-activating protein 1 (Homo sapiens, UniProt Q9H0H5); assay: blockers of MgcRacGAP-driven Rac1 GTP hydrolysis – biochemical, ADP Hunter fluorescence, primary and confirmatory, confirmation (AID 624330); assay type: functional
T7 sequence (Q9H0H5 whole entry): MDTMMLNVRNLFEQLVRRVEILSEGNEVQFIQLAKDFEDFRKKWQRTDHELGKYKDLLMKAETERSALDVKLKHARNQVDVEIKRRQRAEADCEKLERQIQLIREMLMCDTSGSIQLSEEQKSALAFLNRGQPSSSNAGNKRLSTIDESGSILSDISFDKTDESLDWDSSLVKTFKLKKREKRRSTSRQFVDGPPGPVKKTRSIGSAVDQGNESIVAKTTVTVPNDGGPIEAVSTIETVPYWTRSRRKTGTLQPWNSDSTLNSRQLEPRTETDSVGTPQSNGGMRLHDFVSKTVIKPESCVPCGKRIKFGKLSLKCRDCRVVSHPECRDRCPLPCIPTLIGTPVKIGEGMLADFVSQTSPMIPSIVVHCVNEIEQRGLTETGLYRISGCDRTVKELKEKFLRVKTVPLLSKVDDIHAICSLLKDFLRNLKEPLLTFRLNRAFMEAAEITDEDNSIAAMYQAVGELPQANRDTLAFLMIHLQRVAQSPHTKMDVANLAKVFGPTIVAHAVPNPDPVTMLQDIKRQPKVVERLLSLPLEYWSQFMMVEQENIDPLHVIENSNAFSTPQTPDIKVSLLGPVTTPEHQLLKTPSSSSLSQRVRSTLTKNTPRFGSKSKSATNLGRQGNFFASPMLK

[26] = target: E3 ubiquitin-protein ligase Mdm2/Protein Mdm4 (Homo sapiens, UniProt O15151+Q00987); assay: disruption of Mdm2/MdmX protein binding – luminescence detection, dose response (AID 504593); assay type: functional
H9c2 = assay: cells; assay type: functional, cell-based; conditions: Rattus norvegicus, H9c2, Myocardium;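 note: confirmatory concentration-response retest of ultra-high-throughput screening hits for modulation of myocardial damage; cell death induced by hydrogen peroxide oxidative stress; compound pretreatment for 60 min then peroxide exposure for 2 h; potency is for protecting the cells against peroxide damage rather than for killing them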

T1 sequence (Q9Y2T6 whole entry): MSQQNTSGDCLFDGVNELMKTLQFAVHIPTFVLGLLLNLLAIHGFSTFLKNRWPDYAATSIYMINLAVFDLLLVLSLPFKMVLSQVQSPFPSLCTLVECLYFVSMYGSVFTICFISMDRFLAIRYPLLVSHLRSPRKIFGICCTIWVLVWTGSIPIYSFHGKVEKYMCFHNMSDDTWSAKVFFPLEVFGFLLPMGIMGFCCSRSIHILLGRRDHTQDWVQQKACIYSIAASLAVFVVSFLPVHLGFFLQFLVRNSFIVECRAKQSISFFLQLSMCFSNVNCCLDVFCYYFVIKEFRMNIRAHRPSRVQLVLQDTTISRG
T6 sequence (Q932Y6 whole entry): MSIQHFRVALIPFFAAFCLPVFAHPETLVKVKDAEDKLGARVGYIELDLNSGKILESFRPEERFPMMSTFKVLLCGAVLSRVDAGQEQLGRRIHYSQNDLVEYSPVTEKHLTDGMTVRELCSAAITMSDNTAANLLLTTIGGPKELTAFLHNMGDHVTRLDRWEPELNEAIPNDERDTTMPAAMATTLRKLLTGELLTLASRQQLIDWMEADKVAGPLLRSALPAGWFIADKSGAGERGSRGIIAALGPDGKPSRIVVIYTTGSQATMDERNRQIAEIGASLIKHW
Mitochondrial peptide methionine sulfoxide reductase, sequence (P54149 whole entry, the tested form may be a part): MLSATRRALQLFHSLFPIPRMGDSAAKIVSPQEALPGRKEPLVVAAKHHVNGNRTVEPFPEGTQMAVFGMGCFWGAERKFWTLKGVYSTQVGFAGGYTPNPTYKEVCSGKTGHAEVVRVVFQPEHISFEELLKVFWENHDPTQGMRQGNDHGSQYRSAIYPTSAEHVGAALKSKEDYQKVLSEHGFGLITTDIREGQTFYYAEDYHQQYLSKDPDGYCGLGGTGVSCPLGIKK
DNA dC->dU-editing enzyme APOBEC-3A, sequence (P31941 whole entry): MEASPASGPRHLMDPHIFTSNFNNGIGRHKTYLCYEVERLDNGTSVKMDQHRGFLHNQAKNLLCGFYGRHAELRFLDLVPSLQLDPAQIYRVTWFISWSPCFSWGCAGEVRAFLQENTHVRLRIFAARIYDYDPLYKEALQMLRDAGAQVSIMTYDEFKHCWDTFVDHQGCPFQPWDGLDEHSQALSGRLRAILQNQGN
Alkaline phosphatase, placental type, sequence (P05187 whole entry): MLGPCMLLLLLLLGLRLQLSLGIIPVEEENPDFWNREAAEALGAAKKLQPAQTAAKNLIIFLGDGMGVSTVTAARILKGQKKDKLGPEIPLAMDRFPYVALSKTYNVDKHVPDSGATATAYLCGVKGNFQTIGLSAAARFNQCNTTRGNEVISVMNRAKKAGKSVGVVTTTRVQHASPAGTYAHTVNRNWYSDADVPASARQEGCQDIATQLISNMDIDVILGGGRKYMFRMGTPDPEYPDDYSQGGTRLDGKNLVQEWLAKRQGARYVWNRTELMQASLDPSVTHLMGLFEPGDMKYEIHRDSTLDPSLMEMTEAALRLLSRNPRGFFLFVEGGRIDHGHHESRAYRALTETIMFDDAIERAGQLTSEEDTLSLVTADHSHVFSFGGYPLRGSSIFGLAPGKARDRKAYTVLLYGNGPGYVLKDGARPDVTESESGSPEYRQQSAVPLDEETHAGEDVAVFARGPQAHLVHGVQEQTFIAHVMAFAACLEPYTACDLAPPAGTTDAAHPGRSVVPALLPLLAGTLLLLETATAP
E3 ubiquitin-protein ligase Mdm2/Protein Mdm4, sequence (Q00987 whole entry): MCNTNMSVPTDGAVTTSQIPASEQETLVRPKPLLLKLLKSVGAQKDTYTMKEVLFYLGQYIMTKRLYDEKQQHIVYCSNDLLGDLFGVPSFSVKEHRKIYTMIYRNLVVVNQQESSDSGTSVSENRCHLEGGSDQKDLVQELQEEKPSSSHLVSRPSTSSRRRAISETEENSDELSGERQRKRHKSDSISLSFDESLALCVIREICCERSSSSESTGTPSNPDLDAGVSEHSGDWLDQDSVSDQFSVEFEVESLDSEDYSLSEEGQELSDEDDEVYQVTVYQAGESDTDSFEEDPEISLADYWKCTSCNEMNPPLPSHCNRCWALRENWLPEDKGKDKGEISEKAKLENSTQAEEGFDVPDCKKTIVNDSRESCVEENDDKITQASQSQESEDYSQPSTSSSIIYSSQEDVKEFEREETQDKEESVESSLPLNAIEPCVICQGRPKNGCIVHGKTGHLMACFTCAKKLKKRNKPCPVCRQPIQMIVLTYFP
E3 ubiquitin-protein ligase Mdm2/Protein Mdm4, sequence (O15151 whole entry): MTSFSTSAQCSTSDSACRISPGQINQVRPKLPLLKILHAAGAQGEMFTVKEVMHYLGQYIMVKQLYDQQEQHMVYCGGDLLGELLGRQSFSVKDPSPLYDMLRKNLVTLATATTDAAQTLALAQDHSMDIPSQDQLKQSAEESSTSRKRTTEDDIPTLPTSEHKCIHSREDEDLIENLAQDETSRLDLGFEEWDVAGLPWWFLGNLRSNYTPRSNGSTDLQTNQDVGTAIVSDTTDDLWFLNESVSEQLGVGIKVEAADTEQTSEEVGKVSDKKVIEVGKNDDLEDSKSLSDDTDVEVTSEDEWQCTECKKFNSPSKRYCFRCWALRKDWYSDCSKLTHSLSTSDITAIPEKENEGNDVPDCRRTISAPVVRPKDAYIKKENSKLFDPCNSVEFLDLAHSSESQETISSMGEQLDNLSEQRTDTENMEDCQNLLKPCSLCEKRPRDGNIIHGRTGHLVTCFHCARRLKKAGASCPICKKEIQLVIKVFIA
Phosphoethanolamine/phosphocholine phosphatase, sequence (Q8TCT1 whole entry): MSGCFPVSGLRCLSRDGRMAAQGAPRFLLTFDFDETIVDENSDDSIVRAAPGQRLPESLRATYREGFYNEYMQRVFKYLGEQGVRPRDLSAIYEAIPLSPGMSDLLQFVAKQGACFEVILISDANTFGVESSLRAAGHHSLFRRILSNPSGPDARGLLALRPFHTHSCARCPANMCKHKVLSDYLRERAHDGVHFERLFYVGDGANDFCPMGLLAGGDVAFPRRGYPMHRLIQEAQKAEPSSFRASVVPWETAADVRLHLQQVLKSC
DNA dC->dU-editing enzyme APOBEC-3G, sequence (Q9HC16 whole entry, the tested form may be a part): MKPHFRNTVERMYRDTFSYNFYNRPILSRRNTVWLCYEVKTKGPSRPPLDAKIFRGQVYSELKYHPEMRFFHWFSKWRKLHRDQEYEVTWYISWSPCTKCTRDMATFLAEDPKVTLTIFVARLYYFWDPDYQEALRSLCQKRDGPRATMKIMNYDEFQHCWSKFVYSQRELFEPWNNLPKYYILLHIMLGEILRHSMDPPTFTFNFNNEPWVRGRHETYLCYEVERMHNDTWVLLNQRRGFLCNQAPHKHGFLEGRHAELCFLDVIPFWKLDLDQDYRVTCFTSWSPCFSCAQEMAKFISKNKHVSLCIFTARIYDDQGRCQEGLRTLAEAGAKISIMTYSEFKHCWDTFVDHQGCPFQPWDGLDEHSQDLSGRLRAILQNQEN
NACHT, LRR and PYD domains-containing protein 1, sequence (Q9C000 1-1212 limits assumed): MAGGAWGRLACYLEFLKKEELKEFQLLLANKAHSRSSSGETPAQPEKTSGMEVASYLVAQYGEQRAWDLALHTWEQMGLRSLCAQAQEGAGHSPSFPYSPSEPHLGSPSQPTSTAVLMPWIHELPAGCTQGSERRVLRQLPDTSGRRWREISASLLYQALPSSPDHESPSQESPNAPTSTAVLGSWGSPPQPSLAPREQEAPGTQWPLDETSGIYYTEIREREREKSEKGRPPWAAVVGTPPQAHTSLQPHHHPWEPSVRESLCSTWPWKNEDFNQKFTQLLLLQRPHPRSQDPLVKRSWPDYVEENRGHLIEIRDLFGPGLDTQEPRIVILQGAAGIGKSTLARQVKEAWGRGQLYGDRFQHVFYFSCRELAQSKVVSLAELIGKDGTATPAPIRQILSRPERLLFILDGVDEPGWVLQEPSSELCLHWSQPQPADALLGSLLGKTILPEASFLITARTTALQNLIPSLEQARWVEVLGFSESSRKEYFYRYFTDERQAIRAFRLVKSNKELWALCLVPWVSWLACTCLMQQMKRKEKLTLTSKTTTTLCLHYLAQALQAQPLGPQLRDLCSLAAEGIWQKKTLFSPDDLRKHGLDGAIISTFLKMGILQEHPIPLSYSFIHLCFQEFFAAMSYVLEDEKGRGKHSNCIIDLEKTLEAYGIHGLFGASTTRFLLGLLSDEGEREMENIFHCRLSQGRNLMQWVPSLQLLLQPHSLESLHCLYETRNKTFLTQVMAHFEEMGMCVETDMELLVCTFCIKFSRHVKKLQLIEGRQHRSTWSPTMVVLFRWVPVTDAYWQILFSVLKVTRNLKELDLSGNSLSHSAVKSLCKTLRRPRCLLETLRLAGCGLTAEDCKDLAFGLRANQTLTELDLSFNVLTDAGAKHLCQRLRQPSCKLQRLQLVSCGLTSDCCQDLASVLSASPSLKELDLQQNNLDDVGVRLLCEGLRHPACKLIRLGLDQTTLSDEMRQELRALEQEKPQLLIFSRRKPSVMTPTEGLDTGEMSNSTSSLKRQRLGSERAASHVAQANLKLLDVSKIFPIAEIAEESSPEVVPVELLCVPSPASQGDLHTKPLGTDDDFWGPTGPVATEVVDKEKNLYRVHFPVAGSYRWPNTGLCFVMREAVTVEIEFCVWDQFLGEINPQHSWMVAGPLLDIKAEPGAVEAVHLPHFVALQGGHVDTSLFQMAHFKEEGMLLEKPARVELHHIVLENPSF
NACHT, LRR and PYD domains-containing protein 1, sequence (Q9C000 1213-1473 limits assumed): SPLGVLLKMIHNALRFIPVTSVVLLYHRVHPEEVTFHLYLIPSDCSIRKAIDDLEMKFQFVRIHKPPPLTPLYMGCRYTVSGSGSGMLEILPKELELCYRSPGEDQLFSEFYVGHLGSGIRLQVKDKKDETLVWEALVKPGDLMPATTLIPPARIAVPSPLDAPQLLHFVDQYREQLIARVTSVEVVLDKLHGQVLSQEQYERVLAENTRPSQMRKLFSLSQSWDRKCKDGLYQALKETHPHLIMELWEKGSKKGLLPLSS

O=C(CSc1nc2ccccc2c(=O)n1-c1ccc(F)cc1F)Nc1ccc2c(c1)CCC2
CC50 (Vero [1]): > 16.7 µM (active) | CC50 (Vero [2]): > 200 µM (active) | CC50 (Vero [3]): > 80 µM (active) | IC50 (Vero [4]): 45 µM (active) | IC50 (Vero [5]): 173 µM (active) | IC50 (Vero [6]): 11.8 µM (active)

CCCCNS(=O)(=O)c1ccc(NC(=O)C(Sc2ccccc2)c2ccccc2)cc1 (stereo not drawn)
EC50 [7]: > 120 µM (not active) | EC50 [8]: > 120 µM (not active) | EC50 [9]: 13.9 µM (active) | IC50 [10]: 1.12 µM (active) | EC50 [11]: 14 µM (active) | EC50 [12]: 12.2 µM (active)

COC(=O)c1sccc1NC(=O)c1csc(C)c1
IC50 (Saccharomyces cerevisiae): 60.4 µM (active) | IC50 [13]: 15.9 µM (active)

O=C(CSc1nnc(-c2ccco2)[nH]1)c1ccc(O)c(O)c1
IC50 [14]: 12.2 µM (active) | IC50 [15]: 21.7 µM (active)

O=C(O)c1cccc(CSc2nnc(-c3ccc(Cl)cc3Cl)[nH]2)c1
EC50 [16]: 6.41 µM (active)

CC(C)CC(c1nnnn1Cc1ccco1)N1CCN(C2CCCC2)CC1 (stereo not drawn)
IC50 (Coagulation factor XII): > 50 µM (inactive)

O=c1c2cc(F)ccc2sn1-c1ccccc1
IC50 [17]: > 100 µM (inactive) | IC50 (Hexokinase): 1.03 µM (active) | IC50 (Phosphomannomutase 2): 88.3 µM (active) | IC50 [18]: 0.792 µM (active) | IC50 [19]: 8.82 µM (active) | IC50 [15]: > 100 µM (inactive) | IC50 (CHO): 5.8 µM (active) | IC50 (Beta Lactamase [20]): 23 µM (inactive) | EC50 [21]: > 104 µM (inactive) | IC50 [22]: 4.59 µM (active) | IC50 (Beta Lactamase [23]): 23.7 µM (inactive) | CC50 [24]: 100 µM (active) | IC50 [25]: 35.5 µM (active)

CC(=O)c1ccc(-c2ccc(C(=O)Nc3nc(-c4ccccn4)cs3)o2)cc1
IC50 [26]: 3.97 µM (active) | IC50 (H9c2): > 79 µM (inactive)
